Results reported in PMC8746528, “Novel Substituted Purine Isosteres: Synthesis, Structure-Activity Relationships and Cytotoxic Activity Evaluation” (Molecules, 2021).

What was measured:
[1] = system: HCT116 colon cancer cell line; test: MTT cell viability assay, HCT116; format: cell-based; settings: Homo sapiens, HCT-116, treatment 72 h and 96 h, mean ± SD of three experiments
Procedure: (§1) The human HCT116 colon cancer cell line and PC-3 prostate cancer cell line were obtained from the American Type Cell Culture (ATCC, Bethesda, Md). Both cell lines were grown in 75 cm^2 culture flasks at 37 °C in 5% CO2 using Roswell Park Memorial Institute 1640 medium (RPMI 1640, Gibco) and Dulbecco’s modified Eagle’s medium F/12 (DMEM/F-12, Gibco), respectively, containing 10% fetal bovine serum (FBS, Gibco). To test the inhibitory activities of compounds using a cell-based assay, MTT assay was performed for cell viability, as described previously. Briefly, HCT116 cells were plated at a density of 1500 per well, while PC-3 cells were plated at a density of 750 per well in a 96-well plate. After 24 h, cells were treated with the indicated compounds in a dose-dependent manner for 72 h and 96 h (all tested compounds provided clear solutions). MTT [3-(4,5-dimethylthiazol-2-yl)-2,5-diphenyltetrazolium bromide] (Sigma M-5655) was added at a final concentration of 0.5 mg/mL directly to each well for 4 h at 37 °C. The medium was aspirated, and the blue MTT formazan precipitate was dissolved in dimethyl sulfoxide (DMSO). Absorbance was determined in a Powerwave microplate spectrophotometer (Biotek Instruments, Inc.) at 540 nm. Viable cell numbers were determined by tetrazolium conversion to its formazan dye. The IC50 was calculated by Microsoft Excel equation and confirmed by GraphPad Prism (7.0). Each experiment was performed in triplicate and mean values ± SD are reported.

[2] = system: PC-3 prostate cancer cell line; test: MTT cell viability assay, PC-3; format: cell-based; settings: Homo sapiens, treatment 72 h and 96 h, mean ± SD of three experiments
Procedure: as §1

[3] = system: normal human fibroblasts (WI-38); test: MTT cytotoxicity towards normal fibroblasts; format: cell-based; settings: WI-38; for IC50: MTT, normal human fibroblasts
Procedure: as §1
Figure 1 Dose-response curves for the administration of 14b, 26b, 35b on HCT116, PC-3 and WI-38 cells, as assessed by the MTT assay. Results are expressed as a percentage of controls. Statistical analysis was performed in triplicate determination at p < 0.05.

PC-3 cells [4] = test: Annexin V-7AAD apoptosis assay; format: cell-based, human; settings: positive control at 25 nM, PC-3
Procedure: (§2) For cell cycle analysis, cell culture supernatants and attached cells were collected, centrifuged, washed in PBS, fixed in 50% ethanol and stained with an RNase-containing propidium iodide solution (50 μg/mL) (all reagents from Sigma). For cell apoptosis assay, cells were harvested and stained with Annexin V binding buffer, Annexin V–FITC and 7-AAD (Annexin V-FITC Apoptosis Detection Kit, BD Systems). DNA content was analyzed on a BD Accuri C6 Flow Cytometer using the BD CSampler software (BD Biosciences, USA). Non-apoptotic events were used to calculate the percentage of cells distributed in each phase. A p value < 0.05 was considered to be statistically significant (Student’s t-test).

PC-3 cells [5] = test: DNA staining (propidium iodide) and flow cytometric cell cycle analysis; format: cell-based, human; settings: positive control at 25 nM, PC-3
Procedure: as §2

Structure (SMILES): COc1ccc(Cn2cc(-c3cccc(F)c3)c3ncnc(N4CCN(C)CC4)c32)cc1 [25b, 7-(3-Fluorophenyl)-5-(4-methoxybenzyl)-4-(4-methylpiperazin-1-yl)-5H-pyrrolo[3,2-d]pyrimidine]
- melting point: 151 to 152 °C
- IC50 [1]: > 10 µM
- IC50 [2]: > 10 µM

Structure (SMILES): CN1CCN(c2nccc3c(-c4cccc(F)c4)c[nH]c23)CC1 [14f, 3-(3-Fluorophenyl)-7-(4-methylpiperazin-1-yl)-1H-pyrrolo[2,3-c]pyridine]
- melting point: 209 to 210 °C
- IC50 [1]: 2.35 ± 0.15 µM
- IC50 [2]: 2.35 ± 0.05 µM

Structure (SMILES): COc1ccc(Cn2cc(-c3cccc(F)c3)c3ncnc(Nc4cc(OC)c(OC)c(OC)c4)c32)cc1 [24d, 7-(3-Fluorophenyl)-5-(4-methoxybenzyl)-N-(3,4,5-trimethoxyphenyl)-5H-pyrrolo[3,2-d]pyrimidin-4-amine]
- melting point: 96 to 97 °C
- IC50 [1]: > 10 µM
- IC50 [2]: > 10 µM

Structure (SMILES): COc1ccc(Cn2cc(-c3cccc(F)c3)c3ncnc(Nc4ccccc4)c32)cc1 [24b, 7-(3-Fluorophenyl)-5-(4-methoxybenzyl)-Ν-phenyl-5H-pyrrolo[3,2-d]pyrimidin-4-amine]
- melting point: 131 to 132 °C
- IC50 [1]: > 10 µM
- IC50 [2]: > 10 µM

Structure (SMILES): COc1cc(Nc2nccc3c(-c4cccc(F)c4)c[nH]c23)cc(OC)c1OC [14d, 3-(3-Fluorophenyl)-N-(3,4,5-trimethoxyphenyl)-1H-pyrrolo[2,3-c]pyridin-7-amine]
- melting point: 149 to 150 °C
- IC50 [1]: 3.9 ± 0.3 µM
- IC50 [2]: 1.45 ± 0.25 µM
- IC50 [3]: < 10 µM

Structure (SMILES): c1ccc(Nc2nccc3c(-c4ccccc4)c[nH]c23)cc1 [14a, Ν,3-Diphenyl-1H-pyrrolo[2,3-c]pyridin-7-amine]
- melting point: 139 to 140 °C
- IC50 [1]: 5 ± 0.1 µM
- IC50 [2]: 0.215 ± 0.025 µM
- cytotoxicity to normal cells in words [3]: rather cytotoxic to normal cells
- IC50 [3]: < 10 µM

Structure (SMILES): c1ccc(Nc2ncnc3c(-c4ccccc4)c[nH]c23)cc1 [26a, Ν,7-Diphenyl-5H-pyrrolo[3,2-d]pyrimidin-4-amine]
- melting point: > 250 °C
- IC50 [1]: 2.75 ± 0.35 µM
- IC50 [2]: 6.2 ± 0.23 µM

Structure (SMILES): COc1cc(Nc2ncnc3c(-c4cccc(F)c4)c[nH]c23)cc(OC)c1OC [26d, 7-(3-Fluorophenyl)-N-(3,4,5-trimethoxyphenyl)-5H-pyrrolo[3,2-d]pyrimidin-4-amine]
- melting point: 139 to 140 °C
- IC50 [1]: 8.7 ± 0.58 µM
- IC50 [2]: 5.9 ± 0.37 µM

Structure (SMILES): COc1cc(Nc2ncnc3c(-c4ccccc4)n[nH]c23)cc(OC)c1OC [35c, 3-Phenyl-N-(3,4,5-trimethoxyphenyl)-1H-pyrazolo[4,3-d]pyrimidin-7-amine]
- melting point: > 250 °C
- IC50 [1]: 4.7 ± 0.25 µM
- IC50 [2]: 5.7 ± 0.4 µM

Structure (SMILES): COc1cccc2c1C(=O)c1c(O)c3c(c(O)c1C2=O)C[C@@](O)(C(=O)CO)C[C@@H]3O[C@H]1C[C@H](N)[C@H](O)[C@H](C)O1 [Dox, Doxorubicin, reference compound]
- induction of apoptosis (PC-3 cells [4]): 28%
- IC50 [1]: 0.095 ± 0.01 µM
- IC50 [2]: 0.025 ± 0.004 µM
- G2/M phase blockade (PC-3 cells [5]): 58%

Structure (SMILES): COc1ccc(Cn2cc(-c3ccccc3)c3ncnc(Nc4ccccc4)c32)cc1 [24a, 5-(4-Methoxybenzyl)-Ν,7-diphenyl-5H-pyrrolo[3,2-d]pyrimidin-4-amine]
- melting point: 57 to 58 °C
- IC50 [1]: > 10 µM
- IC50 [2]: > 10 µM

Structure (SMILES): COc1cc(Nc2ncnc3c(-c4cccc(F)c4)n[nH]c23)cc(OC)c1OC [35d, 3-(3-Fluorophenyl)-N-(3,4,5-trimethoxyphenyl)-1H-pyrazolo[4,3-d]pyrimidin-7-amine]
- melting point: > 250 °C
- IC50 [1]: > 10 µM
- IC50 [2]: > 10 µM

Structure (SMILES): CN1CCN(c2nccc3c(-c4ccccc4)c[nH]c23)CC1 [14e, 7-(4-Methylpiperazin-1-yl)-3-phenyl-1H-pyrrolo[2,3-c]pyridine]
- melting point: 220 to 221 °C
- IC50 [1]: 2.85 ± 0.05 µM
- IC50 [2]: 1.75 ± 0.25 µM
- IC50 [3]: < 10 µM

Structure (SMILES): COc1ccc(Cn2cc(-c3ccccc3)c3ccnc(N4CCN(C)CC4)c32)cc1 [13a, 1-(4-Methoxybenzyl)-7-(4-methylpiperazin-1-yl)-3-phenyl-1H-pyrrolo[2,3-c]pyridine]
- melting point: 88 to 89 °C
- IC50 [1]: 5 ± 0.18 µM
- IC50 [2]: 7 ± 0.4 µM

Structure (SMILES): COc1ccc(Cn2cc(-c3cccc(F)c3)c3ccnc(N4CCN(C)CC4)c32)cc1 [13b, 3-(3-Fluorophenyl)-1-(4-methoxybenzyl)-7-(4-methylpiperazin-1-yl)-1H-pyrrolo[2,3-c]pyridine]
- IC50 [1]: 4.4 ± 0.35 µM
- IC50 [2]: 9.3 ± 0.76 µM

Structure (SMILES): CN1CCN(c2ncnc3c(-c4cccc(F)c4)n[nH]c23)CC1 [35f, 3-(3-Fluorophenyl)-7-(4-methylpiperazin-1-yl)-1H-pyrazolo[4,3-d]pyrimidine]
- IC50 [1]: > 10 µM
- IC50 [2]: > 10 µM

Structure (SMILES): COc1ccc(Cn2cc(-c3ccccc3)c3ccnc(Nc4cc(OC)c(OC)c(OC)c4)c32)cc1 [10c, 1-(4-Methoxybenzyl)-Ν-(3,4,5-trimethoxyphenyl)-3-phenyl-1H-pyrrolo[2,3-c]pyridin-7-amine]
- melting point: 136 to 137 °C
- IC50 [1]: 9.4 ± 0.53 µM
- IC50 [2]: 9.8 ± 0.25 µM

Structure (SMILES): COc1ccc(Cn2cc(-c3cccc(F)c3)c3ccnc(Nc4cc(OC)c(OC)c(OC)c4)c32)cc1 [10d, 3-(3-Fluorophenyl)-1-(4-methoxybenzyl)-Ν-(3,4,5-trimethoxyphenyl)-1H-pyrrolo[2,3-c]pyridin-7-amine]
- melting point: 93 to 94 °C
- IC50 [1]: > 10 µM
- IC50 [2]: > 10 µM

Structure (SMILES): CN1CCN(c2ncnc3c(-c4cccc(F)c4)c[nH]c23)CC1 [26f, 7-(3-Fluorophenyl)-4-(4-methylpiperazin-1-yl)-5H-pyrrolo[3,2-d]pyrimidine]
- IC50 [1]: > 10 µM
- IC50 [2]: > 10 µM

Structure (SMILES): COc1ccc(Cn2cc(-c3ccccc3)c3ncnc(N4CCN(C)CC4)c32)cc1 [25a, 5-(4-Methoxybenzyl)-4-(4-methylpiperazin-1-yl)-7-phenyl-5H-pyrrolo[3,2-d]pyrimidine]
- melting point: 150 to 151 °C
- IC50 [1]: > 10 µM
- IC50 [2]: > 10 µM

Structure (SMILES): COc1ccc(Cn2cc(-c3cccc(F)c3)c3ccnc(Nc4ccccc4)c32)cc1 [10b, 3-(3-Fluorophenyl)-1-(4-methoxybenzyl)-Ν-phenyl-1H-pyrrolo[2,3-c]pyridin-7-amine]
- melting point: 165 to 166 °C
- IC50 [1]: > 10 µM
- IC50 [2]: > 10 µM

Structure (SMILES): CN1CCN(c2ncnc3c(-c4ccccc4)c[nH]c23)CC1 [26e, 4-(4-Methylpiperazin-1-yl)-7-phenyl-5H-pyrrolo[3,2-d]pyrimidine]
- melting point: > 250 °C
- IC50 [1]: > 10 µM
- IC50 [2]: > 10 µM

Structure (SMILES): COc1ccc(Cn2cc(-c3ccccc3)c3ncnc(Nc4cc(OC)c(OC)c(OC)c4)c32)cc1 [24c, 5-(4-Methoxybenzyl)-N-(3,4,5-trimethoxyphenyl)-7-phenyl-5H-pyrrolo[3,2-d]pyrimidin-4-amine]
- melting point: 187 to 188 °C
- IC50 [1]: 4.5 ± 0.25 µM
- IC50 [2]: 2.25 ± 0.35 µM

Structure (SMILES): COc1ccc(Cn2cc(-c3ccccc3)c3ccnc(Nc4ccccc4)c32)cc1 [10a, 1-(4-Methoxybenzyl)-Ν,3-diphenyl-1H-pyrrolo[2,3-c]pyridin-7-amine]
- melting point: 180 to 181 °C
- IC50 [1]: 2.4 ± 0.1 µM
- IC50 [2]: > 10 µM

Structure (SMILES): COc1cc(Nc2ncnc3c(-c4ccccc4)c[nH]c23)cc(OC)c1OC [26c, N-(3,4,5-Trimethoxyphenyl)-7-phenyl-5H-pyrrolo[3,2-d]pyrimidin-4-amine]
- melting point: > 250 °C
- IC50 [1]: 7.8 ± 0.45 µM
- IC50 [2]: 9.7 ± 0.5 µM

Structure (SMILES): COc1cc(Nc2nccc3c(-c4ccccc4)c[nH]c23)cc(OC)c1OC [14c, N-(3,4,5-trimethoxyphenyl)-3-phenyl-1H-pyrrolo[2,3-c]pyridin-7-amine]
- melting point: 153 to 154 °C
- IC50 [1]: 0.72 ± 0.09 µM
- IC50 [2]: 0.47 ± 0.12 µM
- IC50 [3]: < 10 µM

Structure (SMILES): c1ccc(Nc2ncnc3c(-c4ccccc4)n[nH]c23)cc1 [35a, N,3-Diphenyl-1H-pyrazolo[4,3-d]pyrimidin-7-amine]
- IC50 [1]: 7.3 ± 0.62 µM
- IC50 [2]: 4.7 ± 0.18 µM

Structure (SMILES): CN1CCN(c2ncnc3c(-c4ccccc4)n[nH]c23)CC1 [35e, 7-(4-Methylpiperazin-1-yl)-3-phenyl-1H-pyrazolo[4,3-d]pyrimidine]
- IC50 [1]: > 10 µM
- IC50 [2]: > 10 µM
